The record followed here is US20220177471A1, “N-1 BRANCHED ALKYL SUBSTITUTED IMIDAZO[4,5-C]QUINOLINE COMPOUNDS, COMPOSITIONS, AND METHODS” (3M INNOVATIVE PROPERTIES COMPANY, priority 2019, published 2022).

Where two headings read alike, the source gives them in different places.

In this test the test system is Human peripheral blood mononuclear cells (PBMC). Put plainly: Cytokine induction in human cells (PBMC), cytokines by ELISA / multiplex bead assay. It counts as cell-based. Conditions: for minimal effective concentration: human PBMC, 21-24 hours, lowest concentration giving cytokine level at least 2x negative control. Here is the method: Whole blood was obtained from healthy human donors and collected by venipuncture into vacutainer tubes or syringes containing EDTA. Human peripheral blood mononuclear cells (PBMC) were purified from the whole blood by density gradient centrifugation. Histopaque 1077 (15 mL, Sigma, St. Louis, Mo.) was transferred to 6×50 mL sterile polypropylene conical tubes. The Histopaque was overlayed with 15-25 mL of blood diluted 1:2 in Hank's Balanced Salts Solution (HBSS) (Gibco, Life Technologies, Grand Island, N.Y.). The tubes were then centrifuged at 1370 revolutions per minute (rpm) for 30 minutes at 20° C., with no brake (400×g, GH 3.8 A Rotor).
The interface (buffy coat) containing the PBMC was collected and placed in a new sterile 50 mL conical polypropylene centrifuge tube. The PBMC were mixed with an equal volume of HBSS (about 20 mL from the interface and about 20 mL of HBSS), and then centrifuged at 1090 rpm, 10 minutes, 20° C., with brake (270×g, GH 3.8 A Rotor). After completing centrifugation, the cells were resuspended in 2-3 mL ACK Red blood cell lysis buffer (ammonium chloride potassium solution, Gibco, Life Technologies) and incubated for 2-5 minutes at 20° C. Next, HBSS (40 mL) was added to the cells, and the sample was centrifuged at 270×g for 10 minutes at 20° C. The supernatant was decanted, and the cell pellet was resuspended in 5 mL AIM V Medium (Gibco, Life Technologies). Cell aggregates and debris were removed by filtering the cell solution through a BD Falcon 70 micron nylon cell strainer (BD Biosciences, San Jose, Calif.).
The number of viable cells was determined by counting with a Miltenyi FACS instrument (Miltenyi Biotec Inc., San Diego, Calif.) or by using a hemacytometer. For determining cell viability with a hemacytometer, the cells were diluted 1/10 in 0.4% trypan blue and HBSS (specifically, 50 microliter of trypan blue+40 microliter of HBSS+10 microliter of cell solution were added to a microfuge tube and mixed). Ten microliters of the diluted cells were then applied to the hemacytometer, and the number of viable PBMC were determined by microscopy.
The PBMC sample was then resuspended in 96-well plates at a concentration of 8×10^5 cells/well in 0.1 mL of AIM-V medium. Each compound was solubilized in dimethyl sulfoxide (DMSO) to create a 3 mM stock solution. The stock solution was then further diluted with AIM-V medium to prepare the serial dilutions. The diluted compound (100 microliters) was then transferred to the PBMCs to produce testing sets with final compound concentrations of either 30, 10, 3.3, 1.1, 0.37, 0.12, 0.04, 0.01 micromolar (testing set A); 100, 30, 10, 3.3, 1.1, 0.37, 0.12, 0.04, 0.01, 0.005 micromolar (testing set B); 100, 33.3, 11.1, 3.7, 1.2, 0.41 micromolar (testing set C); or 100, 50, 30, 10, 3.3, 1.1, 0.37, 0.12, 0.04 micromolar (testing set D). The plates also had both positive and negative controls. The negative control wells contained only AIM-V medium with no example compound. The positive control wells contained a control set of imiquimod serially diluted to concentrations of either 30, 10, 3.3, 1.1, 0.37, 0.12, 0.04, 0.01 micromolar (control set A); 100, 30, 10, 3.3, 1.1, 0.37, 0.12, 0.04, 0.01, 0.005 micromolar (control set B); 100, 33.3, 11.1, 3.7, 1.2, 0.41 micromolar (control set C); or 100, 50, 30, 10, 3.3, 1.1, 0.37, 0.12, 0.04 micromolar (control set D). The concentrations used in the control set were selected to match the concentrations used in the testing set. The plates were then cultured at 37° C./5% CO2 for 21-24 hours. Cell-free supernatants were harvested by centrifuging the 96-well plates at 2100 rpm, 23° C. for 10 minutes. Approximately 160 microliters of the supernatant was then stored in a NUNC 96-well plate, covered with the compression cap and stored at −80° C. until the cytokine analysis was done.
IFN-alpha cytokine levels (picograms/mL) were measured by ELISA (human IFN-alpha, pan specific, Mabtech, Cincinnati, Ohio). […]
(In an ELISA, binding on a coated surface is turned into a signal by an enzyme label.)

Where [1] appears, read: ELISA, read-out: MEC to Induce Cytokine: IFN-alpha.
Where [2] appears, read: multiplex bead assay, read-out: MEC to Induce Cytokine: IFN-gamma.
Where [3] appears, read: multiplex bead assay, read-out: MEC to Induce Cytokine: TNF-alpha.

Take `CCCC[C@H](n1cnc2c(N)nc3ccccc3c21)C(C)(C)O` [Example 16, (3S)-3-(4-aminoimidazo[4,5-c]quinolin-1-yl)-2-methyl-heptan-2-ol]: the “cytokine production (statement in words)” value (IFN-alpha, IFN-gamma, TNF-alpha) is “inactive toward cytokine production”. The minimal effective concentration under setting [1] was more than 100 µM, the minimal effective concentration under setting [2] is more than 100 µM and the minimal effective concentration under setting [3] was more than 100 µM.
Take `CCCC[C@@H](n1cnc2c(N)nc3ccccc3c21)C(C)(C)O` [Example 15, (3R)-3-(4-aminoimidazo[4,5-c]quinolin-1-yl)-2-methyl-heptan-2-ol]: the minimal effective concentration is not above 0.04 µM under setting [1], 0.12 µM under setting [2] and 0.12 µM under setting [3].
Take `CC(C)C[C@@H](n1cnc2c(N)nc3ccccc3c21)C(C)(C)O` [Example 17, (3R)-3-(4-aminoimidazo[4,5-c]quinolin-1-yl)-2,5-dimethyl-hexan-2-ol]: the minimal effective concentration reads like this: under setting [1], 10 µM; under setting [2], 10 µM; under setting [3], 10 µM.
